# Values quoted from earlier work in US11883460B2, “Antibiotic compositions for treating bacterial infections” (AGENCY FOR SCIENCE, TECHNOLOGY AND RESEARCH, priority 2014, dated 2024).
# Settings: compared with colistimethate sodium
substance,measurement,value
Colistin sulfate,Stability in human plasma,more stable than colistimethate sodium
